Measurements taken from patent US20240294489A1 (Captor Therapeutics S.A., priority 2020, published 2024).

Tests used:
Assay type in all cases: cell-based
KG-1 cells = experiment: Cell viability CTG assay, KG-1; conditions: Homo sapiens; KG-1, 72 h, 0.001-50 μM; read-out: KG-1 Geomean absolute IC50 by molecule, 72 H
Summary of the method: (§1)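 Cells exposed to compound at 0.25% v/v DMSO for 72 h (37° C., 5% CO2). ATP quantified by CellTiter-Glo luminescence, normalized to DMSO control. Absolute IC50 (T/C=50%) by non-linear regression on duplicate means; geometric mean used for averages.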

MOLT-4 = experiment: Cell viability, additional cell lines (CellTiter-Glo), MOLT-4; conditions: Homo sapiens, MOLT-4, 72 h
Protocol: (§2) Tumor cells are grown at 37° C. in a humidified atmosphere with 5% CO2 in RPMI 1640 medium, supplemented with 10% (v/v) fetal calf serum and 50 μg/ml gentamicin for up to 20 passages, and are passaged once or twice weekly.
(§3) Cells are harvested from exponential phase cultures, counted and plated in 96 well flat-bottom microtiter plates at a cell density depending on the cell line's growth rate (4,000-20,000 cells/well depending on the cell line's growth rate, up to 60,000 for hematological cancer cell lines) in RPMI 1640 medium supplemented with 10% (v/v) fetal calf serum and 50 μg/ml gentamicin (140 μl/well). Cultures are incubated at 37° C. and 5% CO2 in a humidified atmosphere. After 24 h, 10 μl of test compounds or control medium are added and left on the cells for another 72 h. Compounds are serially diluted in DMSO, transferred in cell culture medium, and added to the assay plates by using a Tecan Freedom EVO 200 robotic platform. The DMSO concentration is kept constant at 0.3% v/v across the assay plate. Viability of cells is quantified by the CellTiter-Glo® cell viability assay (Promega G8462). After incubation of cells, 100 μl of CellTiter-Glo® One Solution Assay reagent are added to each well. Plates are shaken for 2 minutes to induce cell lysis and incubated for 20 minutes prior to reading luminescence (LU) by using the EnVision® Xcite multilabel plate reader (Perkin Elmer). […]

Hep3B cells = experiment: Cell survival clonogenic assay, Hep3B; conditions: 0.1-10 μM, crystal violet staining after 9-10 days
Protocol: To determine the ability of a single cell to form a colony (defined as a cluster of at least 50 cells), Kelly and Hep3B cells were maintained in RPM11640 (Kelly) or EMEM (Hep3B) medium, supplemented with penicillin/streptomycin and 10% FBS. The cells were counted and seeded on the 6-well plates, at the density of 1×10^3 cells per well, the compounds to be tested were added at the desired concentration range, and the cells were cultured at 37° C./5% CO2. After colony formation (9-10 days), the cells were washed and treated with 6.0% glutaraldehyde and 0.5% crystal violet mix for 30 min., followed by rinsing with water and drying at room temperature (RT).

TMD8 = experiment: Cell viability, additional cell lines (CellTiter-Glo), TMD8; conditions: Homo sapiens, TMD8, 72 h; read-out: Absolute IC50
Protocol: as §2, §3

MOLM-1 = experiment: Cell viability, additional cell lines (CellTiter-Glo), MOLM-1; conditions: MOLM-1, 72 h
Protocol: as §2, §3

Kelly cells = experiment: Cell viability CTG assay, Kelly; conditions: 72 h, 0.001-50 μM, read-out: Kelly Geomean absolute IC50 by molecule, 72 H
Summary of the method: as §1

HEP-3B = experiment: Cell viability, additional cell lines (CellTiter-Glo), HEP-3B; conditions: Homo sapiens, Hep3B, 72 h
Protocol: as §2, §3

GSPT1 = target: T1, GSPT1 (Homo sapiens, UniProt P15170+Q96SW2); experiment: GSPT1 degradation assay, Hep3B cell line; conditions: HEP3B cells, 24 h, read-out: % of GSPT1 protein reduction
T1 construct: GSPT1 degradation in the Hep3B cell line was investigated; endogenous in cells; host or cells: Hep3B
Protocol: Hep3B cells were maintained in EMEM medium, supplemented with penicillin/streptomycin and 10% Fetal Bovine Serum (FBS). Cells were seeded on 6- or 12-well plates, and the compounds to be tested were added at the desired concentration range. Final DMSO concentration was 0.25%. After 24 h incubation (37° C., 5% CO2), cells were harvested, washed and cell lysates were prepared using RIPA lysis buffer. The amount of protein was determined via BCA assay, and the appropriate quantity was then loaded on the precast gel for the protein separation. After primary and secondary Ab staining, the membranes were washed and signals developed. The densitometry analysis was implemented to obtain the numeric values used later in the protein level evaluation process. Densitometry values were normalized to the loading control and calculated as [%] of the DMSO control.

KG-1a = experiment: Cell viability, additional cell lines (CellTiter-Glo), KG-1a; conditions: Homo sapiens, 72 h
Protocol: as §2, §3

[1] = 9.5 μM, read-out: Test/Control viability at 9.5 μM

T1 sequence (P15170 whole entry): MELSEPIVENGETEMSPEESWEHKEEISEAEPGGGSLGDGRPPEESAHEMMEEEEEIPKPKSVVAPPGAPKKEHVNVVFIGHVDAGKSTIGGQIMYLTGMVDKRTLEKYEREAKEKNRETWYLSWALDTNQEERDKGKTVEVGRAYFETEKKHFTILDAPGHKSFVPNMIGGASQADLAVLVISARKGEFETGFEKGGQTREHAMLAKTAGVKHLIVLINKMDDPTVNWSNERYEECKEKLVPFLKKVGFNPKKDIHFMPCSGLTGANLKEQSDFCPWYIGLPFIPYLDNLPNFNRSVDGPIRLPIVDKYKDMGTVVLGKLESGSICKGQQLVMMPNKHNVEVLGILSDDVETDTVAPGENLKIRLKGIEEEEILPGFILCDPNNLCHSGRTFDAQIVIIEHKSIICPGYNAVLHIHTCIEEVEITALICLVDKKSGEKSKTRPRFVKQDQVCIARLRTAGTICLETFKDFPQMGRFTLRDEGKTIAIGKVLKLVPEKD
T1 sequence (Q96SW2 whole entry): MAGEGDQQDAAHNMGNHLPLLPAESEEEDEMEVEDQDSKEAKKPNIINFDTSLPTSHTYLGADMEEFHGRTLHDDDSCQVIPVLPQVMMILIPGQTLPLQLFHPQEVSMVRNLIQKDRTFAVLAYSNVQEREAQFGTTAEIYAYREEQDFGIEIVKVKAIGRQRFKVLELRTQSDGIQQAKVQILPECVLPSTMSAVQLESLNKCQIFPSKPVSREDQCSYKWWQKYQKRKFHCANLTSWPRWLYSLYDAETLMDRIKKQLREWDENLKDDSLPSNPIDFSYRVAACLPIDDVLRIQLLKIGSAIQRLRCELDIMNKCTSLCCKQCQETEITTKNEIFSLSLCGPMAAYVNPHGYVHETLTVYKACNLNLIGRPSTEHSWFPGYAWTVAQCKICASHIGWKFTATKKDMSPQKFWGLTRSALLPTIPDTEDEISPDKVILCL
T1 sequence (Q16531 whole entry partner): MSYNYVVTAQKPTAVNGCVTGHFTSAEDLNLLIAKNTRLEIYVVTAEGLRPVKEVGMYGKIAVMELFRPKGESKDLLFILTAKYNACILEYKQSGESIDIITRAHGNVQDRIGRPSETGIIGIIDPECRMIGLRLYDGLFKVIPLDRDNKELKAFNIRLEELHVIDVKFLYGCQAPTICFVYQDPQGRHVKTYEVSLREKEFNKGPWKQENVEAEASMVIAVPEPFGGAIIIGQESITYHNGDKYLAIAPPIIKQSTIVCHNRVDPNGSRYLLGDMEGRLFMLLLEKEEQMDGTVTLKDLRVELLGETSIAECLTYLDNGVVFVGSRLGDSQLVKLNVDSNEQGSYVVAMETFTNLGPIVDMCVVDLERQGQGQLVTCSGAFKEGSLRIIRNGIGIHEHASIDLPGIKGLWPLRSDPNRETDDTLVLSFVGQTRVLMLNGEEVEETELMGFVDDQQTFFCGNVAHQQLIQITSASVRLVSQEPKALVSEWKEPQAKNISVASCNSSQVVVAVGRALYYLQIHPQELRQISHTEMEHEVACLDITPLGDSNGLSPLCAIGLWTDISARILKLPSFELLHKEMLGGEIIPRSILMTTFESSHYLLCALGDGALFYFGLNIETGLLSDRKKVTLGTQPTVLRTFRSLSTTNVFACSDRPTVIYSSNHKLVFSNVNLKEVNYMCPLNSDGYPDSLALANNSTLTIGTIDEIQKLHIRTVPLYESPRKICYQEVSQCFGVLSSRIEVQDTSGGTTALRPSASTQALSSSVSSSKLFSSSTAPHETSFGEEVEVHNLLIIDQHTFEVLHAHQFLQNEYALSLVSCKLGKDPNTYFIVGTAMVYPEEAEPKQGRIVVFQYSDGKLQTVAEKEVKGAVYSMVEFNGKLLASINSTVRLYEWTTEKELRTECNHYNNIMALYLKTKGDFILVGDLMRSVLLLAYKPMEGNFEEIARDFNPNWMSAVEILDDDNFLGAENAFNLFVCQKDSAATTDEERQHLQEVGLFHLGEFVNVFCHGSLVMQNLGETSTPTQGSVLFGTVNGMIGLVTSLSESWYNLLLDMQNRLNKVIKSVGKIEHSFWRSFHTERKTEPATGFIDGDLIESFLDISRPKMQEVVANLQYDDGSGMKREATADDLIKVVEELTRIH

Molecule `NCc1ccc2c(c1)CN(C1CCC(=O)NC1=O)C2=O` (centres unmarked) [Compound 1, 3-(5-(aminomethyl)-1-oxoisoindolin-2-yl)piperidine-2,6-dione] has an IC50 (KG-1 cells) of no more than 100 nM, an IC50 (MOLT-4; read-out: Absolute IC50) of no less than 30000 nM and a viability at 9.5 µM (MOLT-4; [1]) of no more than 60%. For the same molecule, the “survival of the cells (colony formation)” value (Hep3B cells) was “in most cases inhibited”, the IC50 (TMD8) was greater than 30000 nM and the viability at 9.5 µM (MOLM-1; [1]) was no more than 30%. For the same molecule, the IC50 (MOLM-1; read-out: Absolute IC50) was no more than 100 nM, the IC50 (Kelly cells) was 100 to 1000 nM and the viability at 9.5 µM (HEP-3B; [1]) was no more than 30%. For the same molecule, the IC50 (HEP-3B; read-out: Absolute IC50) was 100 to 1000 nM, the inhibition at 1 µM (GSPT1; 1 uM) was 80 to 100% and the inhibition at 10 µM (GSPT1; 10 uM) was 80 to 100%. The viability at 9.5 µM (KG-1a; [1]) was no more than 30% and the IC50 (KG-1a; read-out: Absolute IC50) was no more than 100 nM.
